Experimental data published in PubChem BioAssay AID1845204 (Molecular Pharmacology Branch, DTP, NCI, 2023).
“And” between values parts separate entries of the source, which are not always exact repeats. Equal entries are not always repeated.

Test system: HSSY-II tumor spheroid viability
Assay: Anticancer human tumor HSSY-II cell line growth inhibition;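 also: spheroids exposed to compounds for seven days before reading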;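 as to viability, T/C: percent of DMSO vehicle control viability so 100% = untreated level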
Details: spheroids with HUVEC and MSC; for viability, T/C: stronger effect = lower value
Description: Multicellular complex tumor spheroid response to DNA repair inhibitors in combination with DNA-damaging drugs
This study explores the anticancer activities of DNA-damaging drugs and inhibitors of DNA damage repair, both as single agents and in combinations. Complex tumor spheroids comprised of malignant cells, endothelial cells and mesenchymal stem cells served as an in vitro model for human solid tumors. This model system incorporates physiologically relevant features and patient-derived or established malignant cell lines with clinically relevant genetic alterations from many tumor types. Twenty-six patient-derived or established malignant cell lines were evaluated representing sarcoma, melanoma, small cell lung cancer (SCLC), non-small cell lung cancer (NSCLC), as well as bladder, ovarian and pancreatic cancers. The concentration ranges selected for each drug and investigational agent were based upon clinically achievable concentrations if the clinical Cmax of the agent was known.
Compounds. The drugs and compounds olaparib (NSC753686), talazoparib (NSC767125), berzosertib (NSC777718), elimusertib (NSC800525), nedisertib (NSC802822), VX-984 (NSC792969), AZD-1390 (NSC803789), temozolomide (NSC362856), topotecan (NSC609699), trabectedin (NSC813783), staurosporine (NSC755774), and gemcitabine (NSC613327) were obtained from the National Cancer Institute (NCI) Developmental Therapeutics Program Chemical Repository. The FDA-approved anticancer drug set is available from the Developmental Therapeutics Program at https://dtp.cancer.gov/organization/dscb/obtaining/available_plates.htm. […] The stock solutions were prepared in dimethyl sulfoxide (DMSO, Sigma-Aldrich, St. Louis, MO, cat. D2650) at 400-fold the tested concentration and stored at -70 degrees C. Prior to their use, the stock solutions were diluted in fresh medium and the final DMSO concentration in the assay was 0.25% (v/v). All drugs and investigational agents were tested over a range starting from a high concentration at or near the clinical Cmax and decreasing in half-log increments. If the clinical Cmax for an agent had not been determined, the highest concentration tested was 10 microM.
Cell Lines. The patient-derived cancer cell (PDC) lines: 156681-154-R-J1-PDC, 283228-195-R-J1-PDC, 287954-098-R-J1-PDC, 292921-168-R-J2-PDC, 349418-098-R-PDC, 425362-245-T-J1-PDC, 556581-035-R-J1-PDC, and BL0293-F563-PDC were received from the NCI Patient-Derived Models Repository (PDMR, https://pdmr.cancer.gov). The established cell lines HS-SY-2 (RRID:CVCL_8719), MPNST, and SYO-1 (RRID:CVCL_7146) were obtained from the Sloan Kettering Institute. The alveolar soft parts sarcoma cell line ASPS-1 (RRID:CVCL_S738) was established at the NCI and grown from internal seed stocks. The following established cell lines were purchased from the American Type Culture Collection (ATCC, Manassas, VA): G-401 (ATCC, cat. CRL-1441, RRID:CVCL_0270), SW982 (ATCC, cat. HTB-93, RRID:CVCL_1734), VA-ES-BJ (ATCC, cat. CRL-2138, RRID:CVCL_1785), NCI-H719 (ATCC, cat. CRL-5837, RRID:CVCL_1582), NCI-H196 (ATCC, cat. CRL-5823, RRID:CVCL_1509), NCI-H841 (ATCC, cat. CRL-5845, RRID:CVCL_1595), NCI-H1618 (ATCC, cat. CRL-5879, RRID:CVCL_1480), NCI-H1876 (ATCC, cat. CRL-5902, RRID:CVCL_1503), DMS 114 (ATCC, cat. CRL-2066; RRID:CVCL_1174), NCI-H211 (ATCC, cat. CRL-5824; RRID:CVCL_1529), and SW 1271 (ATCC, cat. CRL-2177, RRID:CVCL_1716). The small cell lung cancer cell line COR-L88 was purchased from Sigma-Aldrich (cat. 92031917-1VL, RRID:CVCL_1141). The non-small cell lung cancer cell lines NCI-H226 (RRID:CVCL_1544) and NCI-H322M (RRID:CVCL_1557) were established at the NCI and grown from internal seed stocks. Pooled donor human umbilical vein endothelial cells (HUVEC, Lonza, cat. CC-2519) and human mesenchymal stem cells (hMSC, Lonza, cat. PT-2501) were purchased from Lonza (Walkersville, MD).
Cell Culture. All cells were maintained in an incubator at 37 degrees C and 5% CO2 with 95% humidity. […]

[1] = compound alone, run of 12/02/2019
[2] = compound alone, run of 12/12/2019

SMILES	viability, T/C (compound 0.0316 µM)	viability, T/C (compound 0.1 µM)	viability, T/C (compound 0.316 µM)	viability, T/C (compound 1 µM)	viability, T/C (compound 3.16 µM)	viability, T/C (compound 10 µM)	IC50 (curve of compound)	viability, T/C (compound 0.03 µM)	viability, T/C (compound 0.0949 µM)	viability, T/C (compound 0.3 µM)	viability, T/C (compound 0.949 µM)	viability, T/C (compound 3 µM)	other results
CC(C)n1c(=O)n(C)c2cnc3cc(F)c(-c4ccc(OCCCN5CCCCC5)nc4)cc3c21	139% and 106% and 97.2%	129% and 102% and 101%	118% and 97.2% and 96.5%	126% and 86.8% and 85.9%	113% and 76.4% and 76.1%	53.6% and 35.9% and 32.6%	> 10000 nM and 6620 nM and 6220 nM	–	–	–	–	–	–
CC1COCCN1c1cc(-c2ccnn2C)c2ccnc(-c3ccn[nH]3)c2n1 (stereo not given)	13.6% and 27.8% and 22.3%	6.39% and 6.26% and 6.5%	4.82% and 2.71% and 2.97%	4.16% and 1.96% and 2.24%	4.41% and 2.11% and 2.4%	6.25% and 2.76% and 2.66%	< 31.6 nM	–	–	–	–	–	–
CC[C@@]1(O)C(=O)OCc2c1cc1n(c2=O)Cc2cc3c(CN(C)C)c(O)ccc3nc2-1	–	–	–	–	–	–	–	9.85% [middle of 10 runs]	8.03% [middle of 9 runs]	5.25% [middle of 10 runs]	–	–	viability, T/C (compound 0.003 µM): 85.6% [middle of 10 runs]; IC50 [1]: 8.2 nM [middle of 5 runs]; IC50 [2]: 11.6 nM [middle of 5 runs]
CNCc1ccc(-c2cc(-c3nc(-c4ccc(S(=O)(=O)C(C)C)cc4)cnc3N)on2)cc1	–	–	–	–	–	–	45.8 nM and 47.3 nM and 42.4 nM	74.1% and 79.3% and 68.2%	8.25% and 5.12% and 7.65%	4.73% and 4.15% and 5.89%	1.97% and 2.75% and 1.7%	0.23% (2×) and 0.46%	viability, T/C (compound 0.00949 µM): 97.3% and 98% and 97.5%
COc1cc(C)[nH]c(=O)c1CN1CCc2c(Cl)cc(C(OC)C3COC3)c(Cl)c2C1=O (stereo not given)	79.4% and 99.8% and 97.9%	115% and 84.8% and 86.5%	99.7% and 76.2% and 78.9%	93.8% and 63.5% and 68.3%	94.8% and 60.8% and 62.7%	91.7% and 62.6% and 64.4%	> 10000 nM	–	–	–	–	–	–
COc1cc2c(cc1O)CCNC21CSC2c3c(OC(C)=O)c(C)c4c(c3C(COC1=O)N1C(O)C3Cc5cc(C)c(OC)c(O)c5C(C21)N3C)OCO4 (stereo not given)	–	–	–	–	–	–	–	–	–	–	–	–	viability, T/C (compound 0.0003 µM): 16.7% [middle of 10 runs]; viability, T/C (compound 0.000949 µM): 3.25% [middle of 9 runs]; viability, T/C (compound 0.003 µM): 0.2% [middle of 7 runs]; IC50 [2]: 0.187 nM [middle of 10 runs]
COc1ccc([C@@H](O)c2cc(-c3ncnc4cc(N5CCOCC5)ccc34)c(F)cc2Cl)nn1	99% (2×) and 100%	108% and 97.5% and 98%	98.5% and 89.3% and 86.9%	67.9% and 60.5% and 66.9%	40.8% and 40.2% and 43.4%	15.2% and 20.4% and 21.2%	2100 nM and 1830 nM and 2260 nM	–	–	–	–	–	–
Cc1cc(C)c(CNC(=O)c2cc(-c3ccc(CN4CCOCC4)cc3)cc3c2cnn3C2CCCC2)c(=O)[nH]1	109% and 94.6% and 92.3%	107% and 99.1% and 103%	107% and 106% and 102%	107% and 102% and 91.9%	104% and 95.3% and 96.5%	64.3% and 69.4% and 77.4%	> 10000 nM	–	–	–	–	–	–
Cc1sc2c(c1C)C(c1ccc(Cl)cc1)=NC(CC(=O)Nc1ccc(O)cc1)c1nnc(C)n1-2 (stereo not given)	–	–	–	–	–	–	173 nM and 161 nM and 146 nM	91.5% and 82% and 79.4%	71.5% and 60.6% and 61.9%	30.2% and 39.3% and 30.7%	18.2% and 16.5% and 16.8%	11.9% and 11.7% and 9.97%	viability, T/C (compound 0.00949 µM): 103% and 96.2% and 86.5%
Cn1ncnc1[C@H]1c2n[nH]c(=O)c3cc(F)cc(c23)N[C@@H]1c1ccc(F)cc1	–	–	–	–	–	–	60.5 nM and 129 nM and 70.4 nM	64.8% and 81.5% and 64.3%	40.7% and 58.8% and 46.4%	15.3% and 25.6% and 20.6%	6.4% and 9.46% and 9.61%	4.87% and 8.07% and 6.62%	viability, T/C (compound 0.00949 µM): 76.5% and 87.8% and 78.8%
Cn1nnc2c(C(N)=O)ncn2c1=O	–	–	–	100% [middle of 10 runs]	104% [middle of 10 runs]	102% [middle of 10 runs]	–	–	–	–	–	–	viability, T/C (compound 31.6 µM): 103% [middle of 10 runs]; viability, T/C (compound 100 µM): 93.4% [middle of 10 runs]; IC50 [1]: > 100000 nM
O=C(c1cc(Cc2n[nH]c(=O)c3ccccc23)ccc1F)N1CCN(C(=O)C2CC2)CC1	–	–	–	–	–	–	6160 nM and 4280 nM and 4380 nM	–	99.1% and 104% and 93.2%	91.7% and 90.6% and 98.3%	82.3% and 86.8% and 90.7%	70.6% and 67.4% and 65.8%	viability, T/C (compound 9.49 µM): 30.7% and 11.5% and 17.9%
[2H]c1nc(C)nc([2H])c1-c1cc(NC[C@@H](C)c2cccc3c(C(=O)NC)ccnc23)ncn1	95.9% and 98.9% and 105%	98.9% and 99.4% and 98.4%	95.8% and 98.1% and 101%	99.1% and 97.4% and 99.5%	99% and 92.2% and 97%	93.9% and 84.6% and 93%	> 10000 nM	–	–	–	–	–	–
